From patent publication EP0195316A1, “Quinolonecarboxylic acid derivatives” (KYORIN PHARMACEUTICAL CO., LTD., priority 1985, dated 1986)
Converted amounts (≈) assume the structure as drawn. Read-outs that look alike come from different tables or passages of the source.

What was measured:
[1] = test system: Staphylococcus aureus 209 P; assay: MIC, in vitro antibacterial activity (standard strains); assay type: cell-based; conditions: 10^6 cells/ml, Gram +
[2] = test system: S. aureus IID 670 (Terajima); assay: as above; assay type: cell-based; conditions: Staphylococcus aureus, IID670, 10^6 cells/ml, Gram +
S. pyogenes IID 692 = assay: as above; assay type: cell-based; conditions: Streptococcus pyogenes, IID692; S. pyogenes IID 692, 10^6 cells/ml, Gram +
[3] = test system: Escherichia coli NIHJ JC-2; assay: as above; assay type: cell-based; conditions: NIHJJC2; Escherichia coli NIHJ JC-2, 10^6 cells/ml, Gram -; read-out: MIC
E. coli ATCC 10536 = assay: as above; assay type: cell-based; conditions: Escherichia coli, ATCC10536
P. morganii IID 602 = assay: as above; assay type: cell-based; conditions: Morganella morganii, IID602; P. morganii IID 602, 10^6 cells/ml, Gram -
[4] = test system: Klebsiella pneumoniae KY(GN)6445; assay: as above; assay type: cell-based
[5] = test system: Enterobacter cloacae IID 977; assay: as above; assay type: cell-based; conditions: IID977; Enterobacter cloacae IID 977, 10^6 cells/ml, Gram -
[6] = test system: Citrobacter freundii IID 976; assay: as above; assay type: cell-based; conditions: IID976
P. aeruginosa IFO 12689 = assay: as above; assay type: cell-based; conditions: Pseudomonas aeruginosa, IFO12689; P. aeruginosa IFO 12689, 10^6 cells/ml, Gram -
[7] = test system: Yersinia enterocolitica IID 981; assay: as above; assay type: cell-based; conditions: IID981; Yersinia enterocolitica IID 981, 10^6 cells/ml, Gram -
B. fragilis 0558 = assay: as above; assay type: cell-based; conditions: Bacteroides fragilis; B. fragilis 0558, 10^6 cells/ml, Gram -
B. fragilis 25285 = assay: as above; assay type: cell-based; conditions: Bacteroides fragilis; B. fragilis 25285, 10^6 cells/ml, Gram -
[8] = test system: B. thetaiotaomicron (0661); assay: as above; assay type: cell-based; conditions: Bacteroides thetaiotaomicron; B. thetaiotaomicron (0661), 10^6 cells/ml, Gram -; read-out: MIC
[9] = test system: Peptococcus magnus KY 017; assay: as above; assay type: cell-based; conditions: Finegoldia magna, KY017; Peptococcus magnus KY 017, 10^6 cells/ml, Gram +
C. perfringens KYA 13123 = assay: microbe, parasite or virus in culture; assay type: cell-based; conditions: Clostridium perfringens, KYA13123
[10] = test system: Peptostreptococcus anaerobius KYA 27337; assay: MIC, in vitro antibacterial activity (standard strains); assay type: cell-based; conditions: KYA27337; Peptostreptococcus anaerobius KYA 27337, 10^6 cells/ml, Gram +
[11] = test system: Veillonella parvula KYA 10790; assay: as above; assay type: cell-based; conditions: KYA10790; Veillonella parvula KYA 10790, 10^6 cells/ml, Gram -
S. pyogenes = assay: MIC, in vitro antibacterial activity (clinical isolates); assay type: cell-based; conditions: Streptococcus pyogenes; clinical isolates S. pyogenes, No. of strains 6; read-out: MIC
S. pneumoniae = assay: as above; assay type: cell-based; conditions: Streptococcus pneumoniae; clinical isolates S. pneumoniae, No. of strains 6; read-out: MIC
N. gonorrhoeae = assay: as above; assay type: cell-based; conditions: Neisseria gonorrhoeae, No. of strains 16
S. marcescens = assay: as above; assay type: cell-based; conditions: Serratia marcescens, No. of strains 20
P. vulgaris = assay: as above; assay type: cell-based; conditions: Proteus vulgaris, No. of strains 6
M. morganii = assay: as above; assay type: cell-based; conditions: Morganella morganii, No. of strains 8
C. freundii = assay: as above; assay type: cell-based; conditions: Citrobacter freundii, No. of strains 9
P. aeruginosa = assay: as above; assay type: cell-based; conditions: Pseudomonas aeruginosa; clinical isolates P. aeruginosa, No. of strains 27; read-out: MIC
Alcaligenes sp. = assay: as above; assay type: cell-based; conditions: No. of strains 9
Campylobacter jejuni = assay: as above; assay type: cell-based; conditions: No. of strains 20
S. aureus 209 P = assay type: cell-based
S. aureus Smith = assay type: cell-based; conditions: Conc. of Drugs 2MIC
E. cloacae IID 977 = assay type: cell-based
S. marcescens GN 7577 = assay type: cell-based
Bacteroides fragilis 2 = assay: Experimental local infection with anaerobic bacteria in granuloma pouches in rats; assay type: in vivo; conditions: 25 mg/kg, p.o., pouch exudate, Mean ± S.D. (n=3)
Experimental: Under ether anesthesia, male Wistar rats (7 weeks old) were injected subcutaneously on the back with 20 ml of germ-free air (sterilized by membrane filtration, 0.45 µm pore size) by means of a syringe. Continuously, an inflammatory reaction was induced by injecting one ml of sterile croton oil solution (1 % in olive oil) into the formed air pouch. After 2 days, the air was removed. On the eighth day, 0.5 ml of Bacteroides fragilis 2 culture (10^6 CFU/ml) were injected into bore granuloma pouches. Each compound was administered orally or subcutaneously at 2 hours after infection. […] During experiment, intake of food and water was free. It was known that the activity of the existing quinolonecarboxylic acid compounds against obligate anaerobic bacteria was very weak. […] This property is also one of excellent characters of the present comound.

[12] = E. cloacae IID 977, Conc. of Drugs 2MIC
[13] = E. cloacae IID 977, Conc. of Drugs 4MIC
[14] = S. marcescens GN 7577, Conc. of Drugs 4MIC
[15] = S. marcescens GN 7577, Conc. of Drugs 8MIC

SMILES	MIC [1]	MIC [2]	MIC (S. pyogenes IID 692)	MIC [3]	MIC (E. coli ATCC 10536)	MIC (P. morganii IID 602)	MIC [5]	MIC (P. aeruginosa IFO 12689)	MIC [7]	MIC (B. fragilis 0558)	MIC (B. fragilis 25285)	MIC [8]	MIC [9]	MIC (C. perfringens KYA 13123)	MIC [10]	MIC [11]	MIC (S. pyogenes)	MIC (S. pneumoniae)	MIC (N. gonorrhoeae)	MIC (S. marcescens)	further results
NC1CCN(c2c(F)cc3c(=O)c(C(=O)O)cn(C4CC4)c3c2Cl)C1 (stereo not drawn) [Example 25, 7-(3-Amino-l-pyrrolidinyl)-8-chloro-l-cyclopropyl-6-fluoro-1,4-dihydro-4-oxo-3-quinolinecarboxylic acid]	0.05 µg/mL	0.05 µg/mL	0.1 µg/mL	≤ 0.006 µg/mL	0.0125 µg/mL (≈ 0.0342 µM)	0.05 µg/mL (≈ 0.137 µM)	0.05 µg/mL (≈ 0.137 µM)	0.2 µg/mL (≈ 0.547 µM)	0.025 µg/mL (≈ 0.0683 µM)	0.1 µg/mL (≈ 0.273 µM)	0.1 µg/mL (≈ 0.273 µM)	0.2 µg/mL (≈ 0.547 µM)	0.05 µg/mL	0.1 µg/mL (≈ 0.273 µM)	0.2 µg/mL	0.05 µg/mL (≈ 0.137 µM)	0.1 µg/mL (≈ 0.273 µM)	0.1 µg/mL (≈ 0.273 µM)	0.013 µg/mL (≈ 0.0355 µM)	0.05 µg/mL (≈ 0.137 µM)	MIC ([4]; Klebsiella pneumoniae): 0.0125 µg/mL (≈ 0.0342 µM); MIC ([6]; Citrobacter freundii): 0.0125 µg/mL (≈ 0.0342 µM); MIC (P. vulgaris): 0.05 µg/mL (≈ 0.137 µM); MIC (M. morganii): 0.025 µg/mL (≈ 0.0683 µM); MIC (C. freundii): 0.1 µg/mL (≈ 0.273 µM); MIC (P. aeruginosa): 0.2 µg/mL (≈ 0.547 µM); MIC (Alcaligenes sp.): 0.78 µg/mL (≈ 2.13 µM); MIC (Campylobacter jejuni): 0.05 µg/mL (≈ 0.137 µM); Frequency of spontaneous resistant mutants (S. aureus 209 P; Conc. of Drugs 2MIC): 2.9 × 10^-8; Frequency of spontaneous resistant mutants (S. aureus 209 P; Conc. of Drugs 4MIC): <2.9 × 10^-9; Frequency of spontaneous resistant mutants (S. aureus Smith): <2.9 × 10^-9; Frequency of spontaneous resistant mutants (E. cloacae IID 977; [12]): 6.7 × 10^-10; Frequency of spontaneous resistant mutants (E. cloacae IID 977; [13]): <6.7 × 10^-10; Frequency of spontaneous resistant mutants (S. marcescens GN 7577; S. marcescens GN 7577, Conc. of Drugs 2MIC): 2.3 × 10^-7; Frequency of spontaneous resistant mutants (S. marcescens GN 7577; [14]): <5.3 × 10^-10; Frequency of spontaneous resistant mutants (S. marcescens GN 7577; [15]): <5.3 × 10^-10; Viable cells count (log) / ml (Bacteroides fragilis 2; 6 hr): 4.6 ± 0.31 (log) / ml; Viable cells count (log) / ml (Bacteroides fragilis 2; 24 hr): 4.5 ± 0.15 (log) / ml
CC1CN(c2c(F)cc3c(=O)c(C(=O)O)cn(C4CC4)c3c2Cl)CCN1 (centres unmarked) [Ref.2, 8-Chloro-1-cyclopropyl-6-fluoro-1,4-dihydro-7-(3-methyl-1-piperazinyl)-4-oxo-3-quinolinecarboxylic acid]	0.1 µg/mL	0.1 µg/mL	0.78 µg/mL	≤ 0.006 µg/mL	0.0125 µg/mL (≈ 0.0329 µM)	0.05 µg/mL (≈ 0.132 µM)	0.05 µg/mL (≈ 0.132 µM)	1.56 µg/mL (≈ 4.11 µM)	0.05 µg/mL (≈ 0.132 µM)	0.39 µg/mL (≈ 1.03 µM)	0.39 µg/mL (≈ 1.03 µM)	0.78 µg/mL (≈ 2.05 µM)	0.2 µg/mL	0.39 µg/mL (≈ 1.03 µM)	0.78 µg/mL	0.2 µg/mL (≈ 0.527 µM)	0.39 µg/mL (≈ 1.03 µM)	0.78 µg/mL (≈ 2.05 µM)	0.006 µg/mL (≈ 0.0158 µM)	0.05 µg/mL (≈ 0.132 µM)	MIC ([4]; Klebsiella pneumoniae KY(GN)6445, 10^6 cells/ml, Gram -, read-out: MIC): 0.025 µg/mL (≈ 0.0658 µM); MIC ([6]; Citrobacter freundii IID 976, 10^6 cells/ml, Gram -, read-out: MIC): 0.05 µg/mL (≈ 0.132 µM); MIC (P. vulgaris): 0.05 µg/mL (≈ 0.132 µM); MIC (M. morganii): 0.1 µg/mL (≈ 0.263 µM); MIC (C. freundii): 0.2 µg/mL (≈ 0.527 µM); MIC (P. aeruginosa): 1.56 µg/mL (≈ 4.11 µM); MIC (Alcaligenes sp.): 6.25 µg/mL (≈ 16.5 µM); MIC (Campylobacter jejuni): 0.2 µg/mL (≈ 0.527 µM); Frequency of spontaneous resistant mutants (S. aureus 209 P; Conc. of Drugs 4MIC): 5.1 × 10^-8; Frequency of spontaneous resistant mutants (S. aureus Smith): 3.6 × 10^-7; Frequency of spontaneous resistant mutants (E. cloacae IID 977; [12]): 3.1 × 10^-7; Frequency of spontaneous resistant mutants (E. cloacae IID 977; [13]): <6.7 × 10^-10; Frequency of spontaneous resistant mutants (S. marcescens GN 7577; [14]): 9.9 × 10^-7; Frequency of spontaneous resistant mutants (S. marcescens GN 7577; [15]): 2.1 × 10^-9; Viable cells count (log) / ml (Bacteroides fragilis 2; 6 hr): 5.1 ± 0.21 (log) / ml; Viable cells count (log) / ml (Bacteroides fragilis 2; 24 hr): 4.5 ± 0.55 (log) / ml
